# Reference: patent US6476051B2, “Antipsychotic heterocycle compounds” (Bristol-Myers Squibb Company, priority 1999, dated 2002)
# Structures can show the parent of a compound that is named as a salt. Where two headings read alike, the source gives them in different places.
# Assays:
# [1] = target: T1, human serotonin transporters (Homo sapiens, UniProt P31645); experiment: Serotonin transporter binding assay ([3H]-citalopram binding, HEK-hSERT cell membranes)
# T1 construct: expressed in transfected cells; host or cells: HEK-293 (HEK-hSERT cells), membrane homogenates
# T1 sequence (P31645 whole entry): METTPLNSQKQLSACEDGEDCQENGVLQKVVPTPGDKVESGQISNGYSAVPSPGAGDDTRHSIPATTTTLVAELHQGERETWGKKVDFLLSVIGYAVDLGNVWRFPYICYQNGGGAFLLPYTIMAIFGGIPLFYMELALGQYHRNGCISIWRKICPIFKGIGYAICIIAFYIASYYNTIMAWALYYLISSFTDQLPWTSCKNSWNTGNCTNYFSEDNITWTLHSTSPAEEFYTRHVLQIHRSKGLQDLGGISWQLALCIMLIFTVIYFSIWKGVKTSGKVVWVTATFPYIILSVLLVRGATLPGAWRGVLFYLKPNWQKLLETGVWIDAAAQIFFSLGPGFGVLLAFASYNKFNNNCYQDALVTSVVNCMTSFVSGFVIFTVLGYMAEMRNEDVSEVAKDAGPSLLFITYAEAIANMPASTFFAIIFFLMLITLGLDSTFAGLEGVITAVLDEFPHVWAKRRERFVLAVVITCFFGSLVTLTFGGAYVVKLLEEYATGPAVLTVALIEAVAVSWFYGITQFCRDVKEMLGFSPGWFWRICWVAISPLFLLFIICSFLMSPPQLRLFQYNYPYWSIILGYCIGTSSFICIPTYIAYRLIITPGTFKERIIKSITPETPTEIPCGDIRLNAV
# Text: The compounds of Formula I bind potently to the human 5-HT transporter and inhibit the re-uptake of endogenous serotonin. Selective serotonin reuptake inhibitors (SSRIs) are effective for the treatment of mental depression and have been reported to be useful for treating chronic pain (see: R. W. Fuller, Pharmacologic Modification of Serotonergic Function: Drugs for the Study and Treatment of Psychiatric and Other Disorders,” J. Clin. Psychiatry, 47:4 (Suppl.) April 1986, pp. 4-8). Compounds of the present invention are also envisioned to be useful for treating psychosis, acute mania, mild anxiety states or depression with secondary psychotic episodes. The present compounds are also envisioned to be useful in treating obsessive-compulsive disorders, feeding disorders, anxiety disorders and panic disorders.
# HEK-293 cells that stably express human serotonin transporters (HEK-hSERT cells) were grown at 37° C. in 5% CO2 as a monolayer in medium consisting of EMEM supplemented with 10% fetal bovine serum and G418 sulfate (500 μg/ml). To prepare membranes for radioligand binding experiments, cells were rinsed twice with phosphate-buffered saline (138 mM NaCl, 4.1 mM KCl, 5.1 mM Na2PO4, 1.5 mM […], 11.1 mM glucose, pH 7.4). Cells were transferred from plates to polypropylene tubes (16×100 mm), centrifuged at 1,200×g for 5 min and were frozen at −80° C. until assay. Following centrifugation, pellets were resuspended by homogenization in buffer consisting of 50 mM Tris (pH 7.7 at 25° C.), 120 mM NaCl and 5 mM KCl and then centrifuged at 32,000×g for 10 min. Following centrifugation, supernatants were discarded and pellets were resuspended in buffer consisting of 50 mM Tris (pH 7.4 at 25° C.), 150 mM NaCl and 5 mM KCl. Membrane homogenates (200 μl/plate) were incubated with 1 nM [^3H]-citalopram (specific activity=85 Ci/mmol) and increasing concentrations of test compounds for 1 hour at 25° C. in a total volume of 250 μl. The assay buffer consisted of 50 mM Tris (pH 7.4 at 25° C.), 120 mM NaCl and 5 mM KCl (pH 7.4 with conc. HCl). Plates were incubated for 1 hour at 25° C., then filtered through 0.5% PEI treated Whatman GF/B filters using a Brandel cell harvester. Filters were washed three times with 3 ml of ice-cold tris wash buffer. Non-specific binding was defined with 10 μM fluoxetine. Amount of radioligand bound in the presence and absence of competitor was analyzed by plotting (−)log drug concentration versus the amount of radioligand specifically bound. The midpoint of the displacement curve (IC50, nM), signifies the potency. Ki values were calculated using the method of Cheng and Prusoff (1973).
# Substances which inhibit the re-uptake of serotonin are recognized to be effective antidepressants (Selective Serotonin Reuptake Inhibitors. Edited by J P Feighner and W F Boyer, Chichester, England. John Wiley & Sons, 1991, pp 89-108). Test data IC50 values lower than 250 nM are considered to reflect activity as an inhibitor of serotonin re-uptake.
# [2] = target: T2, recombinant human dopamine D2L receptors (Homo sapiens, UniProt P14416); experiment: Dopamine binding protocol ([3H]-spiperone binding, HEK-D2L cell membranes)
# T2 construct: expressed in transfected cells; host or cells: HEK-293 (HEK-D2L cells), membrane homogenates
# T2 sequence (P14416 whole entry): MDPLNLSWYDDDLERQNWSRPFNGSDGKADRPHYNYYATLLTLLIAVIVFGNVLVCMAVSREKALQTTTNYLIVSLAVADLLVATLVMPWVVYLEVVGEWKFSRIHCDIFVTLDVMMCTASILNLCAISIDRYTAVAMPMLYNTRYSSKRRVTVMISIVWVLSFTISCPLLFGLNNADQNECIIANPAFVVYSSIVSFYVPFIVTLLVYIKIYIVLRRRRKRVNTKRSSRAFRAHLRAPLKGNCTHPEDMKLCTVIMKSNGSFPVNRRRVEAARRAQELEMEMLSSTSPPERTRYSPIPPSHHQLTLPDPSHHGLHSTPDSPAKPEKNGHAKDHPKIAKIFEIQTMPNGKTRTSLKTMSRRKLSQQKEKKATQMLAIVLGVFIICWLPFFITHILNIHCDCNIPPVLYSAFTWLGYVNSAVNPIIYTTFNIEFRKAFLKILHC
# Description: Like many clinically effective antipsychotic agents, the compounds of Formula I also are antagonists at the human D2L receptor as determined by [^3H]-spiperone binding studies using human D2L receptors stably expressed in HEK-293 cells.
# HEK-293 cells that stably express recombinant human dopamine D2L receptors (HEK-D2L cells) were grown at 37° C. in 5% CO2 as a monolayer in medium consisting of EMEM supplemented with 10% fetal bovine serum and G418 sulfate (500 μg/ml). To prepare membranes for radioligand binding experiments, cells were rinsed twice with phosphate-buffered saline (138 mM NaCl, 4.1 mM KCl, 5.1 mM Na2PO4, 1.5 mM […] 11.1 mM glucose, pH 7.4), and incubated for 5-10 min. at 4° C. in hypotonic lysis buffer consisting of 10 mM Tris (pH 7.4) and 5 mM EDTA. Cells were transferred from plates to polypropylene tubes (16×100 mm), homogenized and centrifuged at 32,000×g for 20 min. Following centrifugation, pellets were resuspended by homogenization in buffer consisting of 50 mM Tris (pH 7.7 at 25° C.) and 1 mM EDTA. Homogenates were stored at −80° C. until needed. On the day of an experiment, homogenates were thawed then centrifuged at 32,000×g for 20 min. Following centrifugation, supernatants were discarded and pellets were resuspended in assay buffer consisting of 50 mM Tris (pH 7.4 at 25° C.), 1 mM EDTA and 6 mM MgCl2. Membrane homogenates (˜5 μg) were incubated with 150 pM [^3H]-spiperone (Amersham Life Science) and increasing concentrations of test compounds for 1.5 hours at 22° C. in a total volume of 400 μl. Reactions were stopped by addition of ice-cold assay buffer and filtration over glass fiber filters (Whatman GFB, pre-soaked in 0.05% polyethylenimine) using a microtitre format Brandel cell harvester. Filters were washed with 3 ml of ice-cold assay buffer. Non-specific binding was defined with 2 μM (+)butaclamol. Ki values were calculated using the method of Cheng and Prusoff (1973). Protein concentrations were determined by the method of Bradford (1976) with BSA as a standard.
# Test data IC50 values lower than 250 nM are considered to reflect affinity for dopamine D2L receptors.
# [3] = [3H]-citalopram, HEK-hSERT membranes, read-out: inhibit the re-uptake of serotonin with Ki
# [4] = [3H]-spiperone, HEK-D2L membranes, read-out: dopamine D2L ligands with Ki
Compound,melting point,Ki [1],Ki [2],"Ki [1, 3]","Ki [2, 4]"
"Cc1nc2cc(OCCCN3CC=C(c4c[nH]c5ccc(C#N)cc45)CC3)ccc2s1 (as salt: HCl) [Example 12, 5-{3-[4-(5-cyanoindol-3-yl)-1,2,5,6-tetrahydropyrid-1-yl]propoxy}-2-methylbenzothiazole]",263 to 265 °C,,,,
"Cc1nc2cc(OCCCN3CC=C(c4c[nH]c5c(Br)cccc45)CC3)ccc2s1 [Example 28, 5-{3-[4-(7-bromoindol-3-yl)-1,2,5,6-tetrahydropyrid-1-yl]propoxy}-2-methylbenzothiazole]",,< 100 nM,< 100 nM,,
"Cc1nc2cc(OCCCCN3CC=C(c4c[nH]c5c(Br)cccc45)CC3)ccc2s1 [Example 29, 5-{4-[4-(7-bromoindol-3-yl)1,2,5,6-tetrahydropyrid-1-yl]butoxy}-2-methylbenzothiazole]",,< 100 nM,< 100 nM,,
"Cc1nc2cc(OCCCCCN3CC=C(c4c[nH]c5c(Br)cccc45)CC3)ccc2s1 [Example 30, 5-{5-[4-(7-bromoindol-3-yl)-1,2,5,6-tetrahydropyrid-1-yl]pentoxy}-2-methylbenzothiazole]",,< 100 nM,< 100 nM,,
"COc1ccc2[nH]cc(C3=CCN(CCCOc4ccc5sc(C)nc5c4)CC3)c2c1 [Example 31, 5-{3-[4-(5-methoxyindol-3-yl)-1,2,5,6-tetrahydropyrid-1-yl]propoxy}-2-methylbenzothiazole]",,< 100 nM,< 100 nM,,
"COc1ccc2[nH]cc(C3=CCN(CCCCCOc4ccc5sc(C)nc5c4)CC3)c2c1 [Example 33, 5-{5-[4-(5-methoxyindol-3-yl)-1,2,5,6-tetrahydropyrid-1-yl]pentoxy}-2-methylbenzothiazole]",,< 100 nM,< 100 nM,,
"Cc1nc2cc(OCCCN3CC=C(c4c[nH]c5ccc(F)cc45)CC3)ccc2s1 [Example 34, 5-{3-[4-(5-fluoroindol-3-yl)-1,2,5,6-tetrahydropyrid-1-yl]propoxy}-2-methylbenzothiazole]",,< 100 nM,< 100 nM,,
"Cc1nc2cc(OCCCN3CC=C(c4c[nH]c5ccc(Br)cc45)CC3)ccc2s1 [Example 36, 5-{3-[4-(5-bromoindol-3-yl)-1,2,5,6-tetrahydropyrid-1-yl]propoxy}-2-methylbenzothiazole]",,< 100 nM,< 100 nM,,
"Cc1nc2cc(OCCCCN3CC=C(c4c[nH]c5ccc(C#N)cc45)CC3)ccc2s1 [Example 38, 5-{4-[4-(5-cyanoindol-3-yl)-1,2,5,6-tetrahydropyrid-1-yl]butoxy}-2-methylbenzothiazole]",,< 100 nM,< 100 nM,,
"Cc1nc2cc(OCCCN3CCC(Cc4cccc5c4OCO5)CC3)ccc2s1 [Example 41, 5-{3-[4-(2H-benzo[d]1,3-dioxolan-4-ylmethyl)piperidinyl]propoxy}-2-methylbenzothiazole]",,,,< 100 nM,< 100 nM
"Cc1nc2cc(OCCCN3CCC(Cc4cc(F)ccc4Br)CC3)ccc2s1 [Example 44, 5-(3-{4-[(2-bromo-5-fluorophenyl)methyl]piperidinyl}propoxy)-2-methylbenzothiazole]",,,,< 100 nM,< 100 nM
"Cc1nc2cc(OCCCN3CCC(Cc4cc(F)ccc4F)CC3)ccc2s1 [Example 45, 5-(3-{4-[(2,-5-difluorophenyl)methyl]piperidinyl}propoxy)-2-methylbenzothiazole]",,,,< 100 nM,< 100 nM
